How the values were obtained:
[1] = system: Rattus norvegicus; test: Toxicity in anesthetized-normotensive Wistar rat assessed as heart rate at 40 mg/kg, ip after 45 mins (reference value: 316.82 +/- 8.452 bpm); format: organism-based; parameters: dose 40 mg/kg, route intraperitoneal; conditions: in vivo, 0.75 h
[2] = system: Rattus norvegicus; test: Toxicity in […] normotensive Wistar rat assessed as mean arterial pressure at 40 mg/kg, ip after 15 mins (reference value: 93.81 +/- 1.543 mmHg); format: organism-based, Artery; parameters: dose 40 mg/kg, route intraperitoneal; conditions: in vivo, 0.25 h
[3] = system: Rattus norvegicus; test: Toxicity in anaesthetized-Wistar rat assessed as Q-T ECG interval at 40 mg/kg, ip after 45 mins (reference value: 78.8 +/- 0.927 ms); format: organism-based; parameters: dose 40 mg/kg, route intraperitoneal; conditions: in vivo, 0.75 h
[4] = system: Rattus norvegicus; test: Toxicity in anaesthetized-Wistar rat assessed as Q-T ECG interval at 40 mg/kg, ip measured immediately at 0 min (reference value: 78.8 +/- 1.030 ms); format: organism-based; parameters: dose 40 mg/kg, route intraperitoneal; conditions: in vivo, 0 h
[5] = system: Rattus norvegicus; test: Toxicity in anaesthetized-Wistar rat assessed as QRS ECG interval at 40 mg/kg, ip after 60 mins (reference value: 19.3 +/- 0.873 ms); format: organism-based; parameters: dose 40 mg/kg, route intraperitoneal; conditions: in vivo, 1 h
[6] = system: Rattus norvegicus; test: Toxicity in anaesthetized-Wistar rat assessed as P-Q ECG interval at 40 mg/kg, ip after 60 mins (reference value: […] +/- 0.924 ms); format: organism-based; parameters: dose 40 mg/kg, route intraperitoneal; conditions: in vivo, 1 h
[7] = system: Rattus norvegicus; test: Antihypertensive activity in Wistar rat assessed as mean arterial pressure at 40 mg/kg, ip measured immediately at 0 min (reference value: 194.08 +/- 1.962 mmHg); format: functional, Artery; conditions: route intraperitoneal
[8] = system: Rattus norvegicus; test: Toxicity in anaesthetized-Wistar rat assessed as QRS ECG interval at 40 mg/kg, ip measured immediately at 0 min (reference value: 19.6 +/- 1.142 ms); format: organism-based; parameters: dose 40 mg/kg, route intraperitoneal; conditions: in vivo, 0 h
[9] = system: Rattus norvegicus; test: Toxicity in anesthetized-normotensive Wistar rat assessed as heart rate at 40 mg/kg, ip after 30 mins (reference value: 317.68 +/- 7.631 bpm); format: organism-based; parameters: dose 40 mg/kg, route intraperitoneal; conditions: in vivo, 0.5 h
[10] = system: Rattus norvegicus; test: Antihypertensive activity in Wistar rat assessed as mean arterial pressure at 40 mg/kg, ip after 15 mins (reference value: 195.68 +/- 1.623 mmHg); format: functional, Artery; conditions: route intraperitoneal
[11] = system: Rattus norvegicus; test: Toxicity in […] normotensive Wistar rat assessed as mean arterial pressure at 40 mg/kg, ip after 30 mins (reference value: 94.68 +/- 1.213 mmHg); format: organism-based, Artery; parameters: dose 40 mg/kg, route intraperitoneal; conditions: in vivo, 0.5 h
[12] = system: Rattus norvegicus; test: Toxicity in anaesthetized-Wistar rat assessed as QRS ECG interval at 40 mg/kg, ip after 45 mins (reference value: 20.2 +/- 1.348 ms); format: organism-based; parameters: dose 40 mg/kg, route intraperitoneal; conditions: in vivo, 0.75 h
[13] = system: Rattus norvegicus; test: Antihypertensive activity in Wistar rat assessed as mean arterial pressure at 40 mg/kg, ip after 30 mins (reference value: 194.72 +/- 1.002 mmHg); format: functional, Artery; conditions: route intraperitoneal
[14] = system: Rattus norvegicus; test: Toxicity in anaesthetized-Wistar rat assessed as P-Q ECG interval at 40 mg/kg, ip after 15 mins (reference value: 52.2 +/- 1.158 ms); format: organism-based; parameters: dose 40 mg/kg, route intraperitoneal; conditions: in vivo, 0.25 h
[15] = system: Rattus norvegicus; test: Antiarrhythmic activity in barium chloride-induced Wistar rat assessed as increase in appearance time of arrhythmia at 40 mg/kg, ip administered 60 mins before barium chloride challenge (reference value: 129.4 +/- 4.373 sec); format: functional, Heart; conditions: route intraperitoneal
[16] = system: Rattus norvegicus; test: Toxicity in anaesthetized-Wistar rat assessed as Q-T ECG interval at 40 mg/kg, ip after 30 mins (reference value: 78.3 +/- 0.860 ms); format: organism-based; parameters: dose 40 mg/kg, route intraperitoneal; conditions: in vivo, 0.5 h
[17] = system: Rattus norvegicus; test: Antihypertensive activity in Wistar rat assessed as mean arterial pressure at 40 mg/kg, ip after 45 mins (reference value: 193.96 +/- 0.865 mmHg); format: functional, Artery; conditions: route intraperitoneal
[18] = system: Rattus norvegicus; test: Toxicity in […] normotensive Wistar rat assessed as mean arterial pressure at 40 mg/kg, ip measured immediately at 0 min (reference value: 94.21 +/- 2.065 mmHg); format: organism-based, Artery; parameters: dose 40 mg/kg, route intraperitoneal; conditions: in vivo, 0 h
[19] = system: Rattus norvegicus; test: Toxicity in […] normotensive Wistar rat assessed as mean arterial pressure at 40 mg/kg, ip after 60 mins (reference value: 95.07 +/- 1.973 mmHg); format: organism-based, Artery; parameters: dose 40 mg/kg, route intraperitoneal; conditions: in vivo, 1 h
[20] = system: Rattus norvegicus; test: Antiarrhythmic activity in barium chloride-induced Wistar rat assessed as increase in mortality time at 40 mg/kg, ip administered 60 mins before barium chloride challenge (reference value: 682.8 +/- 9.656 secs); format: functional, Heart; conditions: route intraperitoneal
[21] = system: Rattus norvegicus; test: Antihypertensive activity in Wistar rat assessed as mean arterial pressure at 40 mg/kg, ip after 60 mins (reference value: 195.11 +/- 0.531 mmHg); format: functional, Artery; conditions: route intraperitoneal
[22] = system: Rattus norvegicus; test: Toxicity in anaesthetized-Wistar rat assessed as Q-T ECG interval at 40 mg/kg, ip after 60 mins (reference value: 79.7 +/- 0.965 ms); format: organism-based; parameters: dose 40 mg/kg, route intraperitoneal; conditions: in vivo, 1 h
[23] = system: Rattus norvegicus; test: Toxicity in anaesthetized-Wistar rat assessed as Q-T ECG interval at 40 mg/kg, ip after 15 mins (reference value: 79.4 +/- 1.270 ms); format: organism-based; parameters: dose 40 mg/kg, route intraperitoneal; conditions: in vivo, 0.25 h
[24] = system: Rattus norvegicus; test: Toxicity in anesthetized-normotensive Wistar rat assessed as heart rate at 40 mg/kg, ip after 60 mins (reference value: 314.96 +/- 9.442 bpm); format: organism-based; parameters: dose 40 mg/kg, route intraperitoneal; conditions: in vivo, 1 h
[25] = system: Rattus norvegicus; test: Toxicity in […] normotensive Wistar rat assessed as mean arterial pressure at 40 mg/kg, ip after 45 mins (reference value: 94.83 +/- 0.943 mmHg); format: organism-based, Artery; parameters: dose 40 mg/kg, route intraperitoneal; conditions: in vivo, 0.75 h
[26] = system: Rattus norvegicus; test: Toxicity in anesthetized-normotensive Wistar rat assessed as heart rate at 40 mg/kg, ip after 15 mins (reference value: 313.93 +/- 9.912 bpm); format: organism-based; parameters: dose 40 mg/kg, route intraperitoneal; conditions: in vivo, 0.25 h
[27] = system: Rattus norvegicus; test: Toxicity in anaesthetized-Wistar rat assessed as P-Q ECG interval at 40 mg/kg, ip after 30 mins (reference value: […] +/- 0.927 ms); format: organism-based; parameters: dose 40 mg/kg, route intraperitoneal; conditions: in vivo, 0.5 h
[28] = system: Rattus norvegicus; test: Toxicity in anaesthetized-Wistar rat assessed as QRS ECG interval at 40 mg/kg, ip after 30 mins (reference value: 19.9 +/- 1.393 ms); format: organism-based; parameters: dose 40 mg/kg, route intraperitoneal; conditions: in vivo, 0.5 h
[29] = system: Rattus norvegicus; test: Toxicity in anaesthetized-Wistar rat assessed as P-Q ECG interval at 40 mg/kg, ip after 45 mins (reference value: 52.5 +/- 0.780 ms); format: organism-based; parameters: dose 40 mg/kg, route intraperitoneal; conditions: in vivo, 0.75 h
[30] = system: Rattus norvegicus; test: Toxicity in anaesthetized-Wistar rat assessed as P-Q ECG interval at 40 mg/kg, ip measured immediately at 0 min (reference value: 52.4 +/- 0.927 ms); format: organism-based; parameters: dose 40 mg/kg, route intraperitoneal; conditions: in vivo, 0 h
[31] = system: Rattus norvegicus; test: Toxicity in anesthetized-normotensive Wistar rat assessed as heart rate at 40 mg/kg, ip measured immediately at 0 min (reference value: 316.62 +/- 9.643 bpm); format: organism-based; parameters: dose 40 mg/kg, route intraperitoneal; conditions: in vivo, 0 h
[32] = system: Rattus norvegicus; test: Toxicity in anaesthetized-Wistar rat assessed as QRS ECG interval at 40 mg/kg, ip after 15 mins (reference value: 18.9 +/- 1.563 ms); format: organism-based; parameters: dose 40 mg/kg, route intraperitoneal; conditions: in vivo, 0.25 h

Row | Structure (SMILES) | Activity [1] [bpm] | Activity [2] [mmHg] | Activity [3] [ms] | Activity [4] [min] | Activity [5] [min] | Activity [6] [min] | Activity [7] [mmHg] | Activity [8] [min] | Activity [9] [bpm] | Activity [10] [mmHg] | Activity [11] [mmHg] | Activity [12] [min] | Activity [13] [mmHg] | Activity [14] [min] | Time [15] [s] | Activity [16] [min] | Activity [17] [mmHg] | Activity [18] [mmHg] | Activity [19] [mmHg] | Time [20] [s] | further results
1 | O=C1/C(=C\c2ccccc2)S/C(=N\c2ccccc2)N1CC(O)CN1CCN(C2CCCCC2)CC1 (centres undefined) | 294.42 | 85.61 | 72.9 | 72.8 | 22.6 | 51.3 | 195.99 | 20 | 289.54 | 185.69 | 77.84 | 22.8 | 151.12 | 51.7 | 297.5 | 73.3 | 138.63 | 93.99 | 75.43 | 944.9 | Activity [21]: 158.39 mmHg; Activity [22]: 71.2 ms; Activity [23]: 72.9 min; Activity [24]: 303.42 bpm; Activity [25]: 64.01 mmHg; Activity [26]: 312.65 bpm; Activity [27]: 52.3 min; Activity [28]: 21.9 ms; Activity [29]: 50.6 min; Activity [30]: 51.2 ms; Activity [31]: 324.13 bpm; Activity [32]: 21.4 min
2 | O=C1/C(=C\c2ccccc2)S/C(=N\c2ccccc2)N1CC(O)CN1CCC(C(O)(c2ccccc2)c2ccccc2)CC1 (centres undefined) | 295.73 | 76.73 | 4.49e+06 | 72.9 | 22.5 | 50.2 | 193.69 | 22.4 | 279.31 | 176.43 | 70.26 | 24.2 | 139.21 | 50.1 | 323.4 | 74.3 | 135.96 | 91.39 | 71.94 | 1162.1 | Activity [21]: 162.87 mmHg; Activity [22]: 72.7 ms; Activity [23]: 73.4 min; Activity [24]: 302.12 bpm; Activity [25]: 64.53 mmHg; Activity [26]: 310.46 bpm; Activity [27]: 51.3 min; Activity [28]: 23.8 ms; Activity [29]: 52.4 min; Activity [30]: 49.8 ms; Activity [31]: 332.05 bpm; Activity [32]: 23.1 min
